Columns and labels:
[1] = system: α2 versus α1 receptor complexes; conditions: cited from earlier work
[2] = system: α1β2γ2, α2β3γ2, α3β3γ2 and α5β2γ2 GABAARs; test: Whole-cell patch-clamp, results stated across several recombinant GABAAR subtypes; format: cell-based, rat; conditions: for Preference α2- versus α1GABAARs at low concentrations: low concentrations (<EC50); for Efficacy of potentiation of α2- versus α1GABAARs at saturating concentrations: saturating concentrations: 1 μM DZP, 20 μM CBZ, 20 μM NDMC; for Relative potentiation of subtypes at sub-saturating concentrations: sub-saturating concentrations (<EC50)
Text: (§1) To ensure expression of the γ2 subunit (required for modulation of GABAAR currents by BDZs) in all recorded cells, cells were transfected with a plasmid expressing the γ2 subunit plus eGFP from an IRES (internal ribosome entry site) and only eGFP-positive cells were selected for recordings. The transfection mixture contained (in μg): […], 3 γ2/eGFP (used as a marker of successful transfection). Whole-cell patch-clamp recordings were made 18-36 hrs after transfection at room temperature (20-24° C.) and at a holding membrane potential of −60 mV. Recording electrodes were filled with solution containing (in mM): 120 CsCl, 10 EGTA (aminopolycarboxylic acid), 10 HEPES (4-(2-hydroxyethyl)-1-piperazineethanesulfonic acid, pH 7.40), 4 MgCl2, 0.5 GTP (guanosine-5′-triphosphate) and 2 ATP (adenosine triphosphate). The external solution contained (in mM): 150 NaCl, 10 KCl, 2.0 CaCl2, 1.0 MgCl2, 10 HEPES (pH 7.40), and 10 glucose. GABA was applied to the recorded cell using a manually controlled pulse (6-10 s) of a low sub-saturating GABA concentration (EC10). […] EC50 values and Hill coefficients (nH) were obtained from fits of normalized concentration-response curves to the equation: IGABA=Imax[GABA]nH/([GABA]nH+[EC50]nH). Imax was determined as the average maximal current elicited by saturating concentration of GABA (30 μM−3 mM, depending on the subunit composition).

[3] = system: T1, α1β2γ2, α2β3γ2, α3β3γ2 and α5β2γ2 GABAARs; test: as above; format: cell-based, rat; conditions: up to 3 μM for DZP, up to 20 μM for CBZ and NDMC
T1 construct: EC50 of potentiation of GABAAR currents; other: range over all four receptor subtypes; GABA at EC10; fused on or other part: eGFP co-expressed from an IRES on the γ2 plasmid (not fused)
Text: as §1

[4] = system: T2, α1β2γ2, α2β3γ2, α3β3γ2 and α5β2γ2 GABAARs; test: as above; format: cell-based, rat; conditions: α1-, α2- and α5-GABAARs together; GABA at EC10
T2 construct: rows headed: Potentiation of the other three α1-, α2-, and α5-GABAARs subtypes; other: α1-, α2- and α5-GABAARs together; GABA at EC1; fused on or other part: eGFP co-expressed from an IRES on the γ2 plasmid (not fused)
Text: as §1

α3β3γ2 GABAAR = target: T3, α3β3γ2 GABAAR (Rattus norvegicus, UniProt P18508+P20236); test: Whole-cell patch-clamp, potentiation of GABA-evoked currents in transfected HEK293 cells; format: cell-based; conditions: α3GABAARs; GABA at EC10
T3 construct: expressed in transfected cells; host or cells: HEK293 cells (ATCC)
T3 sequence (P20236 29-493): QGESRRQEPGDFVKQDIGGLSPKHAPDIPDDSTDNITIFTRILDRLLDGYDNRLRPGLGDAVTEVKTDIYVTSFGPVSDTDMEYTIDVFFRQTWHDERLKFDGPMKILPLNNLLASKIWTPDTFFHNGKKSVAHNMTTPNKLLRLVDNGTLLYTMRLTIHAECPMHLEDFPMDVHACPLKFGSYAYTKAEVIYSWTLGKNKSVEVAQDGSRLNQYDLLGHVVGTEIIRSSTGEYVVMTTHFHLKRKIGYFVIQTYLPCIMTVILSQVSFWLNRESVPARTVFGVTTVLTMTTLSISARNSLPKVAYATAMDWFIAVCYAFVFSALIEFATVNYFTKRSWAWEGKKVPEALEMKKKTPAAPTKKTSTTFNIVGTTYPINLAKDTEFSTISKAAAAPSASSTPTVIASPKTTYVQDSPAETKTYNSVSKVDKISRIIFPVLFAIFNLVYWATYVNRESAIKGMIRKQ
T3 sequence (P63079 26-473 partner): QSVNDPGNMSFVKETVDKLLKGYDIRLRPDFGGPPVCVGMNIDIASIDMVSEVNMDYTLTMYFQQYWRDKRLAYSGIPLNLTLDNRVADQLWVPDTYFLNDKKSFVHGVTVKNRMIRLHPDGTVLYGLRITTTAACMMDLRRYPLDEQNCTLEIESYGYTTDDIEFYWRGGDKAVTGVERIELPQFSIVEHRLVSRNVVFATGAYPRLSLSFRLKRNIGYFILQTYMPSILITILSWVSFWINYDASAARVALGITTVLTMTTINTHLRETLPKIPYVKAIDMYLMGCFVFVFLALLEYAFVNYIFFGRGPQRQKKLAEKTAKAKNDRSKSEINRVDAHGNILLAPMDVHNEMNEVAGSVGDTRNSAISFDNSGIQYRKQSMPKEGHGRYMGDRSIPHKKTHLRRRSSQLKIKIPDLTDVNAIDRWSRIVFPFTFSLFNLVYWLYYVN
T3 sequence (P18508 39-466): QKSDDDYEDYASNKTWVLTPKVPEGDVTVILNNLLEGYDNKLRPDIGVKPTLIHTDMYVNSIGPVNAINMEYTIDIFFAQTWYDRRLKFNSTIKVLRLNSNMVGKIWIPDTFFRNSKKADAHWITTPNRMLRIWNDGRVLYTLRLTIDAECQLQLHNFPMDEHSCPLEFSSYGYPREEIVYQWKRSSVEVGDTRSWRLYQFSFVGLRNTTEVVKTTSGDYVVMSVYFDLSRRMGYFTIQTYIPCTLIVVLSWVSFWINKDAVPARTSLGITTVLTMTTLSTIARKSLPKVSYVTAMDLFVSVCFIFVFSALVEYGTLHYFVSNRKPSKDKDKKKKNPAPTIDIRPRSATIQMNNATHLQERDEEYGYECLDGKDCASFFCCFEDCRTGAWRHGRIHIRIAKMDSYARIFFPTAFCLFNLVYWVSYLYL
Text: as §1

healthy volunteers = conditions: standard therapeutic doses; cited from earlier work
[5] = after a single oral dose of 20 or 30 mg of CBZ; cited from earlier work
mice, motor activity = test: Motor activity (photocell interruptions); format: in vivo
[6] = NDMC pharmacokinetics after oral administration, dried blood spot sampling, LCMS-MS; format: in vivo, C57BL/6 mice
Description: Pharmacokinetic parameters of NDMC following oral administration in C57BL/6 mice were determined and allowed to test whether antihyperalgesia after NDMC administration was mediated by NDMC itself and not by a down-stream metabolite.
Pharmacokinetic properties of NDMC were evaluated using the dried blood spot sampling method. This technique allows collecting multiple bleeds from the same animal over a large time window (Deglon et al., 2011, Pharm. Biomed. Analysis, 54(2): 359-367). Four μl of whole blood were collected and spotted onto a filter paper card from Whatman (Dassel, Germany) at different time points between 0 and 48 h after NDMC administration. NDMC concentration measurements were performed using a fully validated LCMS-MS (liquid chromatography—mass spectrometry or HPLC) method. Pharmacokinetic parameters were estimated by a noncompartmental method using WinNonlin® version 5.2 (Pharsight, Mountainview, Calif., USA).
Blood NDMC concentrations were measured with HPLC following single oral doses of 3, 10 and 30 mg kg^−1 in three mice per group (FIG. 5). Maximal blood levels of NDMC were reached within 2-3 hrs.

[7] = system: CCI mice, paw withdrawal threshold; test: Mechanical hyperalgesia (dynamic von Frey filaments) in CCI neuropathic pain model; format: in vivo
Description: (§2) Experiments were performed in wild-type mice (genetic background C57BL/6J or 129X1/SvJ), and in homozygous triple and quadruple (H→R) GABAAR point-mutated mice of the 129X1/SvJ background (Ralvenius et al., 2015, supra). Quadruple point-mutated mice were generated by cross breeding of single point-mutated mice (Crestani et al., 2002, PNAS, 99(13): 8980-8985; Low et al., 2000, Science 290(5489): 131-134; Rudolph et al., 1999, Nature, 401(6755): 796-800). Quadruple point mutated mice carry the H→R mutation in the α1, α2, α3, and α5 subunits that is in all α subunits that can form a high affinity BDZ binding site.
A chronic constriction injury (CCI) model was used. Unilateral constriction injury of the left sciatic nerve just proximal to the trifurcation was performed. Anesthesia was induced and maintained by 2% isoflurane, combined with oxygen (30%). The sciatic nerve was exposed at the mid-thigh level proximal to the sciatic trifurcation by blunt dissection through the biceps femoris muscle. […] of nerve were freed of adhering tissue and three chromic gut ligatures (4/0) (Ethicon) were loosely put around the nerve with about 1 mm spacing. […] Heat hyperalgesia and mechanical sensitization were assessed 7 days after surgery.
Mechanical sensitivity was assessed with dynamic von Frey filaments (IITC, Woodland Hills, Calif.). […]

[8] = system: CCI mice, paw withdrawal latency; test: Heat hyperalgesia (Plantar Test) in chronic constriction injury (CCI) neuropathic pain model; format: in vivo
Description: as §2
A chronic constriction injury (CCI) model was used. Unilateral constriction injury of the left sciatic nerve just proximal to the trifurcation was performed. Anesthesia was induced and maintained by 2% isoflurane, combined with oxygen (30%). The sciatic nerve was exposed at the mid-thigh level proximal to the sciatic trifurcation by blunt dissection through the biceps femoris muscle. […] Heat hyperalgesia and mechanical sensitization were assessed 7 days after surgery.
Paw withdrawal latencies upon exposure to a defined radiant heat stimulus were measured using a commercially available apparatus (Plantar Test, Ugo Basile, Comerio, Italy). […]

α5β2γ2 GABAAR = target: T4, α5β2γ2 GABAAR (Rattus norvegicus, UniProt P18508+P19969); test: Whole-cell patch-clamp, potentiation of GABA-evoked currents in transfected HEK293 cells; format: cell-based; conditions: α5GABAARs; GABA at EC10
T4 construct: expressed in transfected cells; host or cells: HEK293 cells (ATCC)
T4 sequence (P19969 32-464 limits assumed): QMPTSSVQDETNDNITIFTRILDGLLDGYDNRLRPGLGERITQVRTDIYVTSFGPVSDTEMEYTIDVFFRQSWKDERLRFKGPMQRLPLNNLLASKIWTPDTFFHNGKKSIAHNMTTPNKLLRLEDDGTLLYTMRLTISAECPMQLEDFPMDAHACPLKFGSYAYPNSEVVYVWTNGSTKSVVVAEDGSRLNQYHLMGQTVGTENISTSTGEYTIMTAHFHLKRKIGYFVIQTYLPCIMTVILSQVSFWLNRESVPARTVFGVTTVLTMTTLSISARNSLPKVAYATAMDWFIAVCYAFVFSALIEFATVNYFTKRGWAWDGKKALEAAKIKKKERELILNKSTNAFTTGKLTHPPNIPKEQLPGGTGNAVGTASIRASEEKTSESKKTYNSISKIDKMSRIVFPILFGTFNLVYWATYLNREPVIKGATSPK
T4 sequence (P63138 25-474 partner limits assumed): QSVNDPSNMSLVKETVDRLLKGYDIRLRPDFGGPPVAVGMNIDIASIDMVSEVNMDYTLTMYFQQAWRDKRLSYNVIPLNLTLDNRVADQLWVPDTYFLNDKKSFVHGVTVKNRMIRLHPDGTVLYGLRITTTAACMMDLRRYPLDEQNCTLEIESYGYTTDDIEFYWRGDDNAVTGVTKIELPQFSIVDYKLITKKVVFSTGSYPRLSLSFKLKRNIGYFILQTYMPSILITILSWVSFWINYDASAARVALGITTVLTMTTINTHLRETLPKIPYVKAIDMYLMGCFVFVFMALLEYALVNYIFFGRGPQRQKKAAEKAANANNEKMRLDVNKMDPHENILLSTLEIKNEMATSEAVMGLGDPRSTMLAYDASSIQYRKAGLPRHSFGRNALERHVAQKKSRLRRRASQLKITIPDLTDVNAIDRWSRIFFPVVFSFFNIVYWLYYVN
T4 sequence (P18508 39-466): as the sequence (P18508 39-466) above
Text: as §1

α1β2γ2 GABAAR = target: T5, α1β2γ2 GABAAR (Rattus norvegicus, UniProt P18508+P62813); test: as above; format: cell-based; conditions: α1GABAARs; GABA at EC10
T5 construct: expressed in transfected cells; host or cells: HEK293 cells (ATCC)
T5 sequence (P62813 28-455): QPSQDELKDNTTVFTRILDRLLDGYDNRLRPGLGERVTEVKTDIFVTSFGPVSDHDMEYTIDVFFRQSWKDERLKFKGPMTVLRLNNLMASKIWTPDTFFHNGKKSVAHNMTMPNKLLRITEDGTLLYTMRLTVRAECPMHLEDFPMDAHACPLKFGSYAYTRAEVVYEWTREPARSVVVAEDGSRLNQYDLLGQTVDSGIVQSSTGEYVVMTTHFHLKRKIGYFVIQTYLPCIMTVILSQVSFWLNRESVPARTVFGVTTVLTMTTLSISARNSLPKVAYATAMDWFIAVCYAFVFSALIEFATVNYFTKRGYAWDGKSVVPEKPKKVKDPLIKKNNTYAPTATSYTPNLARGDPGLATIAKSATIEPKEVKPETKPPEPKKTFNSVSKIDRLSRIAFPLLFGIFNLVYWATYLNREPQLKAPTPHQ
T5 sequence (P63138 25-474 partner limits assumed): as the sequence (P63138 25-474 partner limits assumed) above
T5 sequence (P18508 39-466): as the sequence (P18508 39-466) above
Text: as §1

α2β3γ2 GABAAR = target: T6, α2β3γ2 GABAAR (Rattus norvegicus, UniProt P18508+P23576); test: as above; format: cell-based
T6 construct: expressed in transfected cells; host or cells: HEK293 cells (ATCC)
T6 sequence (P23576 29-451): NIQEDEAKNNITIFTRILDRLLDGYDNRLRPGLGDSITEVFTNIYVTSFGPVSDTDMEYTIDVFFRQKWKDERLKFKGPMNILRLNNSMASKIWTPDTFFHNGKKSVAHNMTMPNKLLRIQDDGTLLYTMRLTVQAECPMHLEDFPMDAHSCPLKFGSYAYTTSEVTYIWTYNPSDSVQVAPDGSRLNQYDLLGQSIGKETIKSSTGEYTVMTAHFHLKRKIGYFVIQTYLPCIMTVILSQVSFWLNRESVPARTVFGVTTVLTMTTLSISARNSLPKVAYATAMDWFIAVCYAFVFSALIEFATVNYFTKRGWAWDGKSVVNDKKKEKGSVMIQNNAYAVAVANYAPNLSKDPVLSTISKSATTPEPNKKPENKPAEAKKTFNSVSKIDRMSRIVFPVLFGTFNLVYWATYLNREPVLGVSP
T6 sequence (P63079 26-473 partner): as the sequence (P63079 26-473 partner) above
T6 sequence (P18508 39-466): as the sequence (P18508 39-466) above
Text: as §1

[9] = system: α2GABAAR-mediated antihyperalgesia; conditions: GABAAR α1 (H→R) point-mutated mice
Description: To avoid confounding effects of anxiolysis in sedation experiments, and of sedation on antihyperalgesia experiments triple point-mutated mice were used. Sedation was assessed in triple (H→R) point-mutated mice, in which all GABAARs except α1 had been rendered BDZ-insensitive. Conversely, antihyperalgesia was studied in GABAAR α1 (H→R) point-mutated mice to rule out confounding sedation.

α2GABAAR = α2GABAAR (Mus musculus, UniProt P22723+P26048); conditions: full agonist; cited from earlier work
α2GABAAR, sequence (P26048 29-451): as the sequence (P23576 29-451) above, with S88L, P174A counted along it
α2GABAAR, sequence (P22723 39-474): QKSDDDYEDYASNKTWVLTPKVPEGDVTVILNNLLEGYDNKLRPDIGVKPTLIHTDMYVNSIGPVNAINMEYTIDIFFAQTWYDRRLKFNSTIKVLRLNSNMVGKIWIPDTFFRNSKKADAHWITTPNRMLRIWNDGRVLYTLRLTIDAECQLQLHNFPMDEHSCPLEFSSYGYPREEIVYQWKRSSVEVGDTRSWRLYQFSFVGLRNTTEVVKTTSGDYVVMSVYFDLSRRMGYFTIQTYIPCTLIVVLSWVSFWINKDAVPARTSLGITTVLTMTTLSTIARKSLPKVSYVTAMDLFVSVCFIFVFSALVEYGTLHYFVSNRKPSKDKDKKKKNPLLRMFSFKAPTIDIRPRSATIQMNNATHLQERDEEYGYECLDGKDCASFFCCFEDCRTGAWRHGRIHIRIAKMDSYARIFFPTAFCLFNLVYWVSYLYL

[10] = system: α1GABAAR-mediated sedation; test: Dose dependence of sedation in triple (H→R) point-mutated mice; conditions: all GABAARs except α1 BDZ-insensitive
Description: Mice (C57BL/6J or 129X1/SvJ) were tested during the light phase of the day-night cycle. […] Motor activity expressed as the total number of photocell interruptions was recorded for 6 h.

[11] = single oral doses of 3, 10 and 30 mg kg^−1
[12] = quadruple point-mutated mice, 30 mg kg^−1

Structure (SMILES)	Binding affinity for α2 versus α1 receptor complexes [1]	Preference α2- versus α1GABAARs at low concentrations [2]	Efficacy of potentiation of α2- versus α1GABAARs at saturating concentrations [2]	Relative potentiation of subtypes at sub-saturating concentrations [2]	Direct activation of GABAAR currents [3]	Potentiation of currents (% increase upon application) (α3β3γ2 GABAAR)	Analgesic effect (healthy volunteers)	ED50 antihyperalgesia [9] [mg/kg]	further results
CN1C(=O)CC(=O)N(c2ccccc2)c2cc(Cl)ccc21 [CBZ, clobazam]	higher binding affinity for α2 versus α1 receptor complexes	about similar effects on α2- and α1GABAARs	potentiated both GABAAR subtypes with similar efficacy	α1GABAAR mediated currents were potentiated similarly to α2-, α3- and α5-GABAARs mediated currents	did not directly activate GABAAR currents	about 300%	weak analgesic effects	–	Potentiation of the other three α1-, α2-, and α5-GABAARs subtypes [4]: about 150%; Half-life in human [5]: 23 to 24 h
O=C1CC(=O)N(c2ccccc2)c2cc(Cl)ccc2N1 [NDMC, 8-Chloro-1-phenyl-1H-1,5-benzodiazepine-2,4(3H,5H)-dione]	a difference which is shared	preferred α2GABAARs across the entire concentration range tested	clearly favored α2-over α1GABAARs	highest for α2- followed by α3-, and lowest for α5- and α1-GABAARs mediated currents	did not directly activate GABAAR currents	245%	–	3.1 ± 0.9	Effect on locomotor activity (sedation) (mice, motor activity; 129X1/SvJ mice, all tested doses): did not cause any measurable reduction in locomotor activity; Effect on motor activity (sedation) (mice, motor activity; C57BL/6J mice, 3, 10, 30 mg/kg, recorded for 6 h): did not impair motor activity at any dose; α2/α1GABAAR selectivity ratio ([2]; compared among DZP, CBZ and NDMC): most favorable α2/α1GABAAR selectivity ratio; half-life ([6]; C57BL/6, mouse, plasma, range over single oral doses of 3, 10 and 30 mg kg^−1): 4.6 to 5.6 h; Average maximum plasma concentration ([6]; single oral dose 3 mg kg^−1): 1.2 µg/mL; Average maximum plasma concentration ([6]; single oral dose 10 mg kg^−1): 1.9 µg/mL; Average maximum plasma concentration ([6]; single oral dose 30 mg kg^−1): 3.3 µg/mL; Time to average maximum plasma concentrations [6, 11]: about 2.5 hrs; Time to maximal blood levels [6, 11]: 2 to 3 h; Reversal of mechanical hypersensitivity (paw withdrawal threshold) ([7]; C57BL/6J mice, injured paw, NDMC 3, 10, 30 mg/kg, compared to vehicle): dose-dependently reversed this hypersensitivity; Antihyperalgesic effect, mechanical hyperalgesia [7, 12]: completely lost its antihyperalgesic effects; Reversal of thermal hypersensitivity (paw withdrawal latency) ([8]; C57BL/6J mice, injured paw, NDMC 3, 10, 30 mg/kg): dose-dependently reversed this hypersensitivity; Antihyperalgesic effect, heat hyperalgesia [8, 12]: completely lost its antihyperalgesic effects; Potentiation of currents (% increase upon application) (α5β2γ2 GABAAR): 148%; Potentiation of currents (% increase upon application) (α1β2γ2 GABAAR): 143%; Efficacy at α2β3γ2GABAARs compared with DZP (α2β3γ2 GABAAR): even stronger efficacy at α2β3γ2GABAARs than the full agonist DZP; Potentiation of currents (% increase upon application) (α2β3γ2 GABAAR; α2GABAARs, GABA at EC10): 253%
O=C1CN=C(c2ccccc2Cl)c2cc([N+](=O)[O-])ccc2N1 [clonazepam]	no distinction of affinity between α2 and α1 receptor complexes	–	–	–	–	–	weak analgesic effects	–	–
CN1C(=O)CN=C(c2ccccc2)c2cc(Cl)ccc21 [DZP, diazepam]	–	favored α1GABAARs	potentiated both GABAAR subtypes with similar efficacy	α1GABAAR mediated currents were potentiated more strongly than α2-, α3- and α5-GABAARs mediated currents	did not directly activate GABAAR currents	237%	–	3.4 ± 1.3	α2GABAAR occupancy at which significant analgesia (>50% maximum possible effect) is achieved (α2GABAAR): about 70%; ED50 sedation [10]: 0.59 ± 0.08 mg/kg

Source: patent US10806739B2, “Use of n-desmethylclobazam in the treatment of chronic pain disorders and related methods” (LES HOPITAUX UNIV[…] GENEVE, priority 2015, dated 2020)
